Marks after values point to notes of the source that are not given here.
Legend:
Human Stellate Cells = assay: MTT proliferation assay, human stellate cells; assay type: cell-based
Experimental: (§1) Cell proliferation was measured by MTT assay. DMEM with 10% fetal serum was used as cell culture medium. The cells were prepared in suspension (1×10^5/ml), and 100 μL of the suspension was transferred to each well of a 96 wells plate. Once the cells were attached to the plastic, the culture was changed to serum free medium and incubated for another 24 hours. Then, the serum free medium was aspirated, and various concentrations of 1-(3′-fluorophenyl)-5-methyl-2(1H)-pyridone (AKF-PD) or PIRFENIDONE (PFD) in 10% serum medium were added into each well with 5 replicates for each concentration. The cells were stained with MTT (10 μL per well) at 12, 24, or 48 hours post drug treatment. After 4 hrs of incubation, the medium with MTT was aspirated from each well. One hundred μL MTT solvent was added to each well for 15 min, and the dissolved MTT was then measured with a plate reader at 570 nm.

[1] = tested on: Rat Pulmonary Fibroblasts; assay: MTT proliferation assay, rat pulmonary fibroblasts; assay type: cell-based; conditions: for order of inhibitory effect: rat pulmonary fibroblasts
Experimental: as §1, with “(AKF-PD) or 1-(3′-bromophenyl)-5-Methyl-2(1H)-Pyridone or PIRFENIDONE (PFD)” for “(AKF-PD) or PIRFENIDONE (PFD)”, “well) at 24, or” for “well) at 12, 24, or”, “MTT was measured with” for “MTT was then measured with”

[2] = tested on: Human Skin Scar Forming Fibroblasts; assay: MTT proliferation assay, human skin scar forming fibroblasts; assay type: cell-based
Experimental: In the following examples, myocardiac fibroblasts, skin scar forming fibroblast and human peritoneal mesothelial cells are primary cultures prepared according to common procedure. Other cells are commercially purchased. 1-(3-fluorophenyl)-5-methyl-2(1H)-pyridone (AKF-PD) is prepared as a suspension in 5% carboxymethylcellulose.
as §1, with “was” for “was then”

[3] = tested on: TGF-β production and type I & III collagen accumulation in rat UUO model; assay: Rat UUO model, immunohistochemistry of TGF-β and type I & III collagen; assay type: in vivo; conditions: kidney of UUO rats
Experimental: Similar to the example 8, Kidney fibrosis was induced by Unilateral Ureteral Obstruction. And the animal experiments were performed to investigate whether AKF-PD has any effect on TGF-β production and collagen accumulation. These are two known factors for fibrotic lesion.
As shown by FIG. 1, sections A-C were immunohistochemically stained with specific antibody against TGF-β with brown color indicating TGF-β protein expression in kidney cells. All sections were also counterstained lightly with hematoxylin for viewing non-TGF-β stained cells.
Also shown by FIG. 2, type I and III collagen were analyzed by immunohistochemistry. The typical fibrotic fiber was viewed as brown color. There are a […] accumulation of both type I (B) and type III (E) collagen on the fibrotic kidney of UUO model. […] Reduced collagen level can be interpreted as the reduced ECM.

[4] = tested on: SD rat, renal interstitial fibrosis induced by surgical ligation of single side ureter; assay: Rat ureter ligation model of renal interstitial fibrosis, AKF-PD vs PFD (Example 12); assay type: in vivo; conditions: ureter-ligated rats; PFD 500 mg/kg/d, AKF-PD 500 mg/kg/d by gavage; 14 days post surgery
Experimental: Anti-fibrotic effect of AKF-PD was tested on a SD rat model for renal interstitial fibrosis induced by surgical ligation of single side ureter. Male SD rats (180 g˜220 g) were randomly divided into disease model group, PFD (500 mg/kg/d) group and AKF-PD (500 mg/kg/d) group. […] The respective drugs were administrated by gavage to rats in the groups of PFD and AKF-PD from one day prior to the procedure to 14 days post surgical procedure. Normal saline was administrated in a similar fashion to the rats in the groups of disease model. The animals were sacrificed 14 days after surgical procedure and their kidney were removed for pathological (HE staining) examination.

SMILES	Optical Density at 570 nm (Human Stellate Cells; 100 μg/ml, 12 h)	Optical Density at 570 nm (Human Stellate Cells; 100 μg/ml, 24 h)	Optical Density at 570 nm (Human Stellate Cells; 100 μg/ml, 48 h)	Optical Density at 570 nm (Human Stellate Cells; 500 μg/ml, 12 h)	Optical Density at 570 nm (Human Stellate Cells; 500 μg/ml, 24 h)	Optical Density at 570 nm (Human Stellate Cells; 500 μg/ml, 48 h)	Optical Density at 570 nm (Human Stellate Cells; 1000 μg/ml, 12 h)	Optical Density at 570 nm (Human Stellate Cells; 1000 μg/ml, 24 h)	Optical Density at 570 nm (Human Stellate Cells; 1000 μg/ml, 48 h)	Optical Density at 570 nm (Human Stellate Cells; 2500 μg/ml, 12 h)	Optical Density at 570 nm (Human Stellate Cells; 2500 μg/ml, 24 h)	Optical Density at 570 nm (Human Stellate Cells; 2500 μg/ml, 48 h)	Optical Density at 570 nm ([1]; 100 μg/ml, 24 h)	Optical Density at 570 nm ([1]; 100 μg/ml, 48 h)	Optical Density at 570 nm ([1]; 500 μg/ml, 24 h)	Optical Density at 570 nm ([1]; 500 μg/ml, 48 h)	Optical Density at 570 nm ([1]; 1000 μg/ml, 24 h)	Optical Density at 570 nm ([1]; 1000 μg/ml, 48 h)	order of inhibitory effect [1]	Optical Density at 570 nm ([2]; 100 μg/ml, 12 h)	other results
Cc1ccc(=O)n(-c2cccc(F)c2)c1 [AKF-PD, 1-(3′-fluorophenyl)-5-methyl-2(1H)-pyridone]	0.202 ± 0.001	0.366 ± 0.002	0.442 ± 0.006	0.202 ± 0.001	0.341 ± 0.003	0.406 ± 0.002	0.198 ± 0.001	0.312 ± 0.003	0.385 ± 0.004	0.195 ± 0.002	0.273 ± 0.005	0.246 ± 0.001	0.1467 ± 0.0138	0.1369 ± 0.0115	0.1258 ± 0.0119	0.1214 ± 0.0234	0.1130 ± 0.0163	0.1119 ± 0.0285	AKF-PD>AKF-BR>pirfenidone	0.192 ± 0.010	anti-proliferative potency compared with PIRFENIDONE (Human Stellate Cells; human stellate cells): more potent anti-proliferative agent than PIRFENIDONE; suppression of proliferation of rat pulmonary fibroblasts [1]: could suppress proliferation of rat pulmonary fibroblasts; Optical Density at 570 nm ([2]; 100 μg/ml, 24 h): 0.245 ± 0.002; Optical Density at 570 nm ([2]; 100 μg/ml, 48 h): 0.366 ± 0.006; Optical Density at 570 nm ([2]; 500 μg/ml, 12 h): 0.192 ± 0.006; Optical Density at 570 nm ([2]; 500 μg/ml, 24 h): 0.238 ± 0.004; Optical Density at 570 nm ([2]; 500 μg/ml, 48 h): 0.345 ± 0.007; Optical Density at 570 nm ([2]; 1000 μg/ml, 12 h): 0.192 ± 0.009; Optical Density at 570 nm ([2]; 1000 μg/ml, 24 h): 0.221 ± 0.004; Optical Density at 570 nm ([2]; 1000 μg/ml, 48 h): 0.323 ± 0.009; Optical Density at 570 nm ([2]; 2500 μg/ml, 12 h): 0.190 ± 0.002; Optical Density at 570 nm ([2]; 2500 μg/ml, 24 h): 0.198 ± 0.008; Optical Density at 570 nm ([2]; 2500 μg/ml, 48 h): 0.267 ± 0.001; anti-proliferative potency compared with PIRFENIDONE ([2]; human skin fibroblasts): more potent anti-proliferative agent than PIRFENIDONE; TGF-β production (immunohistochemistry, FIG. 1) [3]: significantly reduced TGF-β production; type I and III collagen accumulation or production (immunohistochemistry, FIG. 2) [3]: significantly blocks type I and III collagen accumulation or production; Histological Score for Interstitial Compartment [4]: 7.11 ± 1.38
Cc1ccc(=O)n(-c2ccccc2)c1 [PFD, 5-methyl-1-phenyl-2(1H)-pyridone, reference compound]	0.206 ± 0.003	0.371 ± 0.001	0.447 ± 0.003	0.202 ± 0.001	0.345 ± 0.002	0.413 ± 0.001***^++	0.201 ± 0.001	0.330 ± 0.001***^++	0.402 ± 0.001***^++	0.198 ± 0.001	0.278 ± 0.001***^+	0.306 ± 0.002***^+++	0.2023 ± 0.0169	0.1864 ± 0.0530	0.1887 ± 0.0130	0.1459 ± 0.0255	0.1797 ± 0.0166	0.1269 ± 0.0302	AKF-PD>AKF-BR>pirfenidone	0.194 ± 0.004	Optical Density at 570 nm ([2]; 100 μg/ml, 24 h): 0.250 ± 0.003; Optical Density at 570 nm ([2]; 100 μg/ml, 48 h): 0.366 ± 0.006; Optical Density at 570 nm ([2]; 500 μg/ml, 12 h): 0.191 ± 0.008; Optical Density at 570 nm ([2]; 500 μg/ml, 24 h): 0.245 ± 0.004*^+; Optical Density at 570 nm ([2]; 500 μg/ml, 48 h): 0.350 ± 0.003***^++; Optical Density at 570 nm ([2]; 1000 μg/ml, 12 h): 0.190 ± 0.008; Optical Density at 570 nm ([2]; 1000 μg/ml, 24 h): 0.330 ± 0.001*^++; Optical Density at 570 nm ([2]; 1000 μg/ml, 48 h): 0.328 ± 0.004***^++; Optical Density at 570 nm ([2]; 2500 μg/ml, 12 h): 0.193 ± 0.004; Optical Density at 570 nm ([2]; 2500 μg/ml, 24 h): 0.278 ± 0.001***^+++; Optical Density at 570 nm ([2]; 2500 μg/ml, 48 h): 0.264 ± 0.005; Histological Score for Interstitial Compartment [4]: 8.06 ± 2.41

Reference: patent US20090005424A9, “Composition and Method for Treating Fibrotic Diseases” (priority 2005, published 2009)
